Source: the supplement of paper PMC11616607

Assays:
Test in all cases: drug sensitivity score (DSS) from 5-point dose-response viability curve (DSS (area-under-curve based score)); higher = more sensitive (stronger growth inhibition or killing); extreme values may be limits of the assay
Details in all cases: exposure time: 72 h; concentration range: 5 concentrations over 10,000-fold range
OVCAR8 = system: OVCAR8
Method in brief: (§1)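 Ovarian cancer and normal ovarian cell lines were tested in 384-well plates. Drugs were acoustically dispensed (Echo 550) in DMSO or water at five concentrations spanning a 10,000-fold range, then 1,500 cells per well were added and incubated 3 days at 37°C, 5% CO2. Viability was read by CellTiter-Glo luminescence on a PHERAstar FS. Drug sensitivity score was derived per cell line and drug with Breeze software; higher means more sensitive, zero means no response.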

HOSE1C = system: HOSE1C
Method in brief: as §1

Kuramochi = system: Kuramochi
Method in brief: as §1

COV318 = system: COV318
Method in brief: as §1

COV362 = system: COV362
Method in brief: as §1

OVCAR4 = system: OVCAR4
Method in brief: as §1

OVCAR5 = system: OVCAR5
Method in brief: as §1

Ovsaho = system: Ovsaho
Method in brief: as §1

HOSE2C = system: HOSE2C
Method in brief: as §1

CAOV3 = system: CAOV3
Method in brief: as §1

JHOS2 = system: JHOS2
Method in brief: as §1

OV90 = system: OV90
Method in brief: as §1

CC(=O)O[C@@]12CO[C@@H]1C[C@H](O)[C@@]1(C)C(=O)[C@H](O)C3=C(C)[C@@H](OC(=O)[C@H](O)[C@@H](NC(=O)OC(C)(C)C)c4ccccc4)C[C@@](O)([C@@H](OC(=O)c4ccccc4)[C@H]21)C3(C)C [Docetaxel]
drug sensitivity score (OVCAR8): 27.7 | drug sensitivity score (HOSE1C): 29.3 | drug sensitivity score (Kuramochi): 16 | drug sensitivity score (COV318): 9.5 | drug sensitivity score (COV362): 9.3 | drug sensitivity score (OVCAR4): 8.1 | drug sensitivity score (OVCAR5): 23.4 | drug sensitivity score (Ovsaho): 10.3 | drug sensitivity score (HOSE2C): 27.6 | drug sensitivity score (CAOV3): 28.7 | drug sensitivity score (JHOS2): 13.9 | drug sensitivity score (OV90): 15.5

CN(C)Cc1ccc(S(=O)(=O)n2ccc(/C=C/C(=O)NO)c2)cc1 [Resminostat]
drug sensitivity score (OVCAR8): 11.8 | drug sensitivity score (HOSE1C): 19.3 | drug sensitivity score (Kuramochi): 5.8 | drug sensitivity score (COV318): 4.8 | drug sensitivity score (COV362): 2.9 | drug sensitivity score (OVCAR4): 3.2 | drug sensitivity score (OVCAR5): 12.3 | drug sensitivity score (Ovsaho): 3.6 | drug sensitivity score (HOSE2C): 12 | drug sensitivity score (CAOV3): 8.2 | drug sensitivity score (JHOS2): 5.3 | drug sensitivity score (OV90): 9.7

Cc1ccc(=O)n(-c2ccccc2)c1 [Pirfenidone]
drug sensitivity score (OVCAR8): 0 | drug sensitivity score (HOSE1C): 0 | drug sensitivity score (Kuramochi): 0 | drug sensitivity score (COV318): 0 | drug sensitivity score (COV362): 0 | drug sensitivity score (OVCAR4): 0 | drug sensitivity score (OVCAR5): 0 | drug sensitivity score (Ovsaho): 0 | drug sensitivity score (HOSE2C): 0 | drug sensitivity score (CAOV3): 0 | drug sensitivity score (JHOS2): 0 | drug sensitivity score (OV90): 0

CN1CCN(c2ccc(C(=O)Nc3n[nH]c4ccc(Cc5cc(F)cc(F)c5)cc34)c(NC3CCOCC3)c2)CC1 [Entrectinib]
drug sensitivity score (OVCAR8): 0 | drug sensitivity score (HOSE1C): 0.1 | drug sensitivity score (Kuramochi): 0 | drug sensitivity score (COV318): 0 | drug sensitivity score (COV362): 0.1 | drug sensitivity score (OVCAR4): 1 | drug sensitivity score (OVCAR5): 1 | drug sensitivity score (Ovsaho): 1.5 | drug sensitivity score (HOSE2C): 0 | drug sensitivity score (CAOV3): 0.6 | drug sensitivity score (JHOS2): 0 | drug sensitivity score (OV90): 0

COc1ccc(Cn2ccc3ccc(C(=O)NO)cc32)cc1
drug sensitivity score (OVCAR8): 3.7 | drug sensitivity score (HOSE1C): 2.5 | drug sensitivity score (Kuramochi): 1.2 | drug sensitivity score (COV318): 0 | drug sensitivity score (COV362): 0 | drug sensitivity score (OVCAR4): 3.6 | drug sensitivity score (OVCAR5): 0.7 | drug sensitivity score (Ovsaho): 2.6 | drug sensitivity score (HOSE2C): 1.5 | drug sensitivity score (CAOV3): 1.1 | drug sensitivity score (JHOS2): 0.1 | drug sensitivity score (OV90): 1.8

C=CCN(/C=C1/C(=O)O[C@H](COC)[C@@]2(C)C1=C(O)C(=O)C1=C2[C@H](OC(C)=O)C[C@]2(C)C(=O)CC[C@@H]12)CC=C [Sonolisib]
drug sensitivity score (OVCAR8): 0 | drug sensitivity score (HOSE1C): 0 | drug sensitivity score (Kuramochi): 0 | drug sensitivity score (COV318): 0 | drug sensitivity score (COV362): 0 | drug sensitivity score (OVCAR4): 0 | drug sensitivity score (OVCAR5): 0 | drug sensitivity score (Ovsaho): 0 | drug sensitivity score (HOSE2C): 0.6 | drug sensitivity score (CAOV3): 0 | drug sensitivity score (JHOS2): 0 | drug sensitivity score (OV90): 0

Cc1cnc(Nc2ccc(OCCN3CCCC3)cc2)nc1Nc1cccc(S(=O)(=O)NC(C)(C)C)c1 [Fedratinib]
drug sensitivity score (OVCAR8): 7.1 | drug sensitivity score (HOSE1C): 7.1 | drug sensitivity score (Kuramochi): 7.7 | drug sensitivity score (COV318): 3.7 | drug sensitivity score (COV362): 6.1 | drug sensitivity score (OVCAR4): 5.2 | drug sensitivity score (OVCAR5): 7.2 | drug sensitivity score (Ovsaho): 7.4 | drug sensitivity score (HOSE2C): 8.5 | drug sensitivity score (CAOV3): 6.5 | drug sensitivity score (JHOS2): 5.3 | drug sensitivity score (OV90): 8.8

C[C@@H]1C=C2C(=O)O[C@@H]3CC[C@H](C1)[C@]23O [Galiellalactone]
drug sensitivity score (OVCAR8): 3.6 | drug sensitivity score (HOSE1C): 8.1 | drug sensitivity score (Kuramochi): 0 | drug sensitivity score (COV318): 3.8 | drug sensitivity score (COV362): 2.9 | drug sensitivity score (OVCAR4): 6.5 | drug sensitivity score (OVCAR5): 7.6 | drug sensitivity score (Ovsaho): 4.6 | drug sensitivity score (HOSE2C): 7.3 | drug sensitivity score (CAOV3): 6.1 | drug sensitivity score (JHOS2): 5.6 | drug sensitivity score (OV90): 7.1

O=c1[nH]c(=O)n([C@H]2C[C@H](O)[C@@H](CO)O2)cc1C(F)(F)F [Trifluridine]
drug sensitivity score (OVCAR8): 2.7 | drug sensitivity score (HOSE1C): 0 | drug sensitivity score (Kuramochi): 0 | drug sensitivity score (COV318): 0 | drug sensitivity score (COV362): 0 | drug sensitivity score (OVCAR4): 1.1 | drug sensitivity score (OVCAR5): 2.9 | drug sensitivity score (Ovsaho): 2 | drug sensitivity score (HOSE2C): 0 | drug sensitivity score (CAOV3): 3.3 | drug sensitivity score (JHOS2): 0.6 | drug sensitivity score (OV90): 2.1

Cc1ccc(F)c(NC(=O)Nc2ccc(-c3cccc4[nH]nc(N)c34)cc2)c1 [Linifanib]
drug sensitivity score (OVCAR8): 0 | drug sensitivity score (HOSE1C): 0 | drug sensitivity score (Kuramochi): 0 | drug sensitivity score (COV318): 0.2 | drug sensitivity score (COV362): 0 | drug sensitivity score (OVCAR4): 0 | drug sensitivity score (OVCAR5): 0 | drug sensitivity score (Ovsaho): 0 | drug sensitivity score (HOSE2C): 0 | drug sensitivity score (CAOV3): 0 | drug sensitivity score (JHOS2): 0 | drug sensitivity score (OV90): 0

O=C(O)C1(C(=O)O)CCC1.[NH2-].[NH2-].[Pt+2] [Carboplatin]
drug sensitivity score (OVCAR8): 1.9 | drug sensitivity score (HOSE1C): 7.8 | drug sensitivity score (Kuramochi): 4.9 | drug sensitivity score (COV318): 5.5 | drug sensitivity score (COV362): 0 | drug sensitivity score (OVCAR4): 5.6 | drug sensitivity score (OVCAR5): 4.7 | drug sensitivity score (Ovsaho): 5.5 | drug sensitivity score (HOSE2C): 5 | drug sensitivity score (CAOV3): 6.1 | drug sensitivity score (JHOS2): 3.1 | drug sensitivity score (OV90): 3.6

C[C@@H](Oc1cc(-c2cnn(C3CCNCC3)c2)cnc1N)c1c(Cl)ccc(F)c1Cl [Crizotinib]
drug sensitivity score (OVCAR8): 0 | drug sensitivity score (HOSE1C): 0 | drug sensitivity score (Kuramochi): 0 | drug sensitivity score (COV318): 0 | drug sensitivity score (COV362): 0 | drug sensitivity score (OVCAR4): 0 | drug sensitivity score (OVCAR5): 0 | drug sensitivity score (Ovsaho): 0 | drug sensitivity score (HOSE2C): 0.1 | drug sensitivity score (CAOV3): 0 | drug sensitivity score (JHOS2): 0 | drug sensitivity score (OV90): 0

CC[C@H](C)C(=O)O[C@H]1C[C@@H](C)C=C2C=C[C@H](C)[C@H](CC[C@@H]3C[C@@H](O)CC(=O)O3)[C@H]21 [Lovastatin]
drug sensitivity score (OVCAR8): 1.7 | drug sensitivity score (HOSE1C): 7.5 | drug sensitivity score (Kuramochi): 0.3 | drug sensitivity score (COV318): 0 | drug sensitivity score (COV362): 0.1 | drug sensitivity score (OVCAR4): 0.2 | drug sensitivity score (OVCAR5): 0.8 | drug sensitivity score (Ovsaho): 0.7 | drug sensitivity score (HOSE2C): 7.8 | drug sensitivity score (CAOV3): 0 | drug sensitivity score (JHOS2): 0 | drug sensitivity score (OV90): 1.3

CS(=O)(=O)c1ccc(C(=O)Nc2ccc(Cl)c(-c3ccccn3)c2)c(Cl)c1 [Vismodegib]
drug sensitivity score (OVCAR8): 0 | drug sensitivity score (HOSE1C): 3.8 | drug sensitivity score (Kuramochi): 0.1 | drug sensitivity score (COV318): 0 | drug sensitivity score (COV362): 0 | drug sensitivity score (OVCAR4): 0 | drug sensitivity score (OVCAR5): 0.1 | drug sensitivity score (Ovsaho): 0 | drug sensitivity score (HOSE2C): 0 | drug sensitivity score (CAOV3): 0 | drug sensitivity score (JHOS2): 0 | drug sensitivity score (OV90): 0.1

COc1cc2c(NC3CCN(C(C)C)CC3)nc(C3CCCCC3)nc2cc1OCCCN1CCCC1 [UNC0638]
drug sensitivity score (OVCAR8): 3.6 | drug sensitivity score (HOSE1C): 0 | drug sensitivity score (Kuramochi): 0.8 | drug sensitivity score (COV318): 0.6 | drug sensitivity score (COV362): 4.1 | drug sensitivity score (OVCAR4): 0.9 | drug sensitivity score (OVCAR5): 3.4 | drug sensitivity score (Ovsaho): 0.3 | drug sensitivity score (HOSE2C): 0 | drug sensitivity score (CAOV3): 0.1 | drug sensitivity score (JHOS2): 0 | drug sensitivity score (OV90): 5.4
